# Test results taken from US9315503B2, “Kinase inhibitors” (CHIESI FARMACEUTICI S.p.A., priority 2011, dated 2016).
# Where a name gives a salt, the structure may show the parent alone.
# Columns and labels:
# [1] = target: T1, p38alpha (Homo sapiens, UniProt Q16539); experiment: P38Alpha enzyme inhibition assay (Alphascreen kinase activity assay); assay type: biochemical; conditions: 100 pM p38alpha, 250 μM ATP, 2 hours pre-incubation at 25° C., read-out: p38α inhibition (IC50 values)
# T1 construct: purchased Invitrogen PV3304
# Procedure, shortened: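 AlphaScreen read-out: after an EDTA stop, an anti-phospho-ATF2 antibody with Protein A acceptor and donor beads measured substrate phosphorylation. Compounds sat 2 h at 25°C with 100 pM p38α and 0.3 µg/ml ATF-2 fusion protein (pH 7.5, 1% DMSO) before 250 µM ATP was added for 1 h. IC50 from dose-response.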
# [2] = system: LPS-stimulated TNFα release from PBMCs; experiment: LPS-stimulated PBMC TNFα release assay; assay type: cell-based; conditions: inhibition of TNFα release, human PBMCs, LPS 10 ng/ml, 18 h, ELISA, read-out: p38α inhibition (IC50 values)
# Procedure, shortened: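 TNFα in supernatants measured by ELISA after 18 h LPS (10 ng/ml) challenge of human PBMCs given 1 h compound pretreatment at 37 °C in medium with 1% FBS. Percent inhibition versus control release fitted to dose-response curves for IC50; at least three independent runs.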
# T1 sequence (Q16539 whole entry): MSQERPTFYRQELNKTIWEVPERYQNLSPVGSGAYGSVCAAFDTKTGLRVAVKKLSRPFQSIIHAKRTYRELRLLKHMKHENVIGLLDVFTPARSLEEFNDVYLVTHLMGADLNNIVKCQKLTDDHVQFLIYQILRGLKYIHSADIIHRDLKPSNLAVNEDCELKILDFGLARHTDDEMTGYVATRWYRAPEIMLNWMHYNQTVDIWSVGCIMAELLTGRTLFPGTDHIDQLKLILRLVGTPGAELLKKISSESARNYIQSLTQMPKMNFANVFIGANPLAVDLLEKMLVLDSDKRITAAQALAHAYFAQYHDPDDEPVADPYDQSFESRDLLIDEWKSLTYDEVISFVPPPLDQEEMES
SMILES,IC50 [1],IC50 [2]
"Cc1ccc(-n2nc(C(C)(C)C)cc2NC(=O)N[C@H]2CC[C@@H](Oc3ccc4nnc(N5CCC(C)(O)CC5)n4c3)c3ccccc32)cc1 [Example 79, 1-(5-tert-Butyl-2-p-tolyl-2H-pyrazol-3-yl)-3-{(1S,4R)-4-[3-(4-hydroxy-4-methyl-piperidin-1-yl)-[1,2,4]triazolo[4,3-a]pyridin-6-yloxy]-1,2,3,4-tetrahydro-naphthalen-1-yl}-urea]",< 10 nM,< 10 nM
"Cc1ccc(-n2nc(C(C)(C)C)cc2NC(=O)N[C@H]2CC[C@@H](Oc3ccc4nnc(C(C)(C)N5CCCC5)n4c3)c3ccccc32)cc1 [Example 80, 1-(5-tert-Butyl-2-p-tolyl-2H-pyrazol-3-yl)-3-{(1S,4R)-4-[3-(1-methyl-1-pyrrolidin-1-yl-ethyl)-[1,2,4]triazolo[4,3-a]pyridin-6-yloxy]-1,2,3,4-tetrahydro-naphthalen-1-yl}-urea]",< 10 nM,< 10 nM
"Cc1ccc(-n2nc(C(C)(C)C)cc2NC(=O)N[C@H]2CC[C@@H](Oc3ccc4nnc(N5CCCC[C@@H]5C)n4c3)c3ccccc32)cc1 [Example 81, 1-(5-tert-Butyl-2-p-tolyl-2H-pyrazol-3-yl)-3-{(1S,4R)-4-[3-((S)-2-methyl-piperidin-1-yl)-[1,2,4]triazolo[4,3-a]pyridin-6-yloxy]-1,2,3,4-tetrahydro-naphthalen-1-yl}-urea]",< 10 nM,< 10 nM
"Cc1ccc(-n2nc(C(C)(C)C)cc2NC(=O)N[C@H]2CC[C@@H](Oc3ccc4nnc([C@H]5COCCN5C)n4c3)c3ccccc32)cc1 [Example 83, 1-(5-tert-Butyl-2-p-tolyl-2H-pyrazol-3-yl)-3-{(1S,4R)-4-[3-((S)-4-methyl-morpholin-3-yl)-[1,2,4]triazolo[4,3-a]pyridin-6-yloxy]-1,2,3,4-tetrahydro-naphthalen-1-yl}-urea, partial formate salt]",< 10 nM,< 10 nM
"Cc1ccc(-n2nc(C(C)(C)C)cc2NC(=O)N[C@H]2CC[C@@H](Oc3ccc4nnc([C@@H]5CCCN5CCCO)n4c3)c3ccccc32)cc1 [Example 84, 1-(5-tert-Butyl-2-p-tolyl-2H-pyrazol-3-yl)-3-((1S,4R)-4-{3-[(S)-1-(3-hydroxy-propyl)-pyrrolidin-2-yl]-[1,2,4]triazolo[4,3-a]pyridin-6-yloxy}-1,2,3,4-tetrahydro-naphthalen-1-yl)-urea]",< 10 nM,< 10 nM
"Cc1ccc(-n2nc(C(C)(C)C)cc2NC(=O)N[C@H]2CC[C@@H](Oc3ccc4nnc([C@]5(CO)CCCN5C)n4c3)c3ccccc32)cc1 [Example 85, 1-(5-tert-Butyl-2-p-tolyl-2H-pyrazol-3-yl)-3-{(1S,4R)-4-[3-((S)-2-hydroxymethyl-1-methyl-pyrrolidin-2-yl)-[1,2,4]triazolo[4,3-a]pyridin-6-yloxy]-1,2,3,4-tetrahydro-naphthalen-1-yl}-urea]",< 10 nM,< 10 nM
"Cc1ccc(-n2nc(C(C)(C)C)cc2NC(=O)N[C@H]2CC[C@@H](Oc3ccc4nnc(C5CN(C)CCN5C)n4c3)c3ccccc32)cc1 (stereo partly drawn) [Example 86, 1-(5-tert-Butyl-2-p-tolyl-2H-pyrazol-3-yl)-3-{(1S,4R)-4-[3-(1,4-dimethyl-piperazin-2-yl)-[1,2,4]triazolo[4,3-a]pyridin-6-yloxy]-1,2,3,4-tetrahydro-naphthalen-1-yl}-urea formate salt]",< 10 nM,< 10 nM
"Cc1ccc(-n2nc(C(C)(C)C)cc2NC(=O)N[C@H]2CC[C@@H](Oc3ccc4nnc([C@@H]5CC(C)(C)CN5C)n4c3)c3ccccc32)cc1 [Example 87, 1-(5-tert-Butyl-2-p-tolyl-2H-pyrazol-3-yl)-3-{(1S,4R)-4-[3-((S)-1,4,4-trimethyl-pyrrolidin-2-yl)-[1,2,4]triazolo[4,3a]pyridin-6-yloxy]-1,2,3,4-tetrahydro-naphthalen-1-yl}-urea]",< 10 nM,< 10 nM
"Cc1ccc(-n2nc(C(C)(C)C)cc2NC(=O)N[C@H]2CC[C@@H](Oc3ccc4nnc([C@@H]5CCN(C)C5)n4c3)c3ccccc32)cc1 [Example 90, 1-(5-tert-Butyl-2-p-tolyl-2H-pyrazol-3-yl)-3-{(1S,4R)-4-[3-((R)-1-methyl-pyrrolidin-3-yl)-[1,2,4]triazolo[4,3-a]pyridin-6-yloxy]-1,2,3,4-tetrahydro-naphthalen-1-yl}-urea]",< 10 nM,< 10 nM

# Continued, in another order:
IC50 [1],SMILES,IC50 [2]
< 10 nM,"Cc1ccc(-n2nc(C(C)(C)C)cc2NC(=O)N[C@H]2CC[C@@H](Oc3ccc4nnc(N5CCC[C@@H](CO)C5)n4c3)c3ccccc32)cc1 [Example 77, 1-(5-tert-Butyl-2-p-tolyl-2H-pyrazol-3-yl)-3-{(1S,4R)-4-[3-((R)-3-hydroxymethyl-piperidin-1-yl)-[1,2,4]triazolo[4,3-a]pyridin-6-yloxy]-1,2,3,4-tetrahydro-naphthalen-1-yl}-urea]",< 10 nM
< 10 nM,"Cc1ccc(-n2nc(C(C)(C)C)cc2NC(=O)N[C@H]2CC[C@@H](Oc3ccc4nnc(N5CCC[C@H](CO)C5)n4c3)c3ccccc32)cc1 [Example 78, 1-(5-tert-Butyl-2-p-tolyl-2H-pyrazol-3-yl)-3-{(1S,4R)-4-[3-((S)-3-hydroxymethyl-piperidin-1-yl)-[1,2,4]triazolo[4,3-a]pyridin-6-yloxy]-1,2,3,4-tetrahydro-naphthalen-1-yl}-urea]",< 10 nM
< 10 nM,"Cc1ccc(-n2nc(C(C)(C)C)cc2NC(=O)N[C@H]2CC[C@@H](Oc3ccc4nnc(N5CCCC[C@H]5C)n4c3)c3ccccc32)cc1 [Example 82, 1-(5-tert-Butyl-2-p-tolyl-2H-pyrazol-3-yl)-3-{(1S,4R)-4-[3-((R)-2-methyl-piperidin-1-yl)-[1,2,4]triazolo[4,3-a]pyridin-6-yloxy]-1,2,3,4-tetrahydro-naphthalen-1-yl}-urea]",< 10 nM
< 10 nM,"Cc1ccc(-n2nc(C(C)(C)C)cc2NC(=O)N[C@H]2CC[C@@H](Oc3ccc4nnc([C@H]5CCCN(C)C5)n4c3)c3ccccc32)cc1 [Example 88, 1-(5-tert-Butyl-2-p-tolyl-2H-pyrazol-3-yl)-3-{(1S,4R)-4-[3-((S)-1-methyl-piperidin-3-yl)-[1,2,4]triazolo[4,3-a]pyridin-6-yloxy]-1,2,3,4-tetrahydro-naphthalen-1-yl}-urea]",< 10 nM
< 10 nM,"Cc1ccc(-n2nc(C(C)(C)C)cc2NC(=O)N[C@H]2CC[C@@H](Oc3ccc4nnc([C@@H]5CCCN(C)C5)n4c3)c3ccccc32)cc1 [Example 89, 1-(5-tert-Butyl-2-p-tolyl-2H-pyrazol-3-yl)-3-{(1S,4R)-4-[3-((R)-1-methyl-piperidin-3-yl)-[1,2,4]triazolo[4,3-a]pyridin-6-yloxy]-1,2,3,4-tetrahydro-naphthalen-1-yl}-urea]",< 10 nM
< 10 nM,"Cc1ccc(-n2nc(C(C)(C)C)cc2NC(=O)N[C@H]2CC[C@@H](Oc3ccc4nnc(N5CC[C@H](CO)C5)n4c3)c3ccccc32)cc1 [Example 92, 1-(5-tert-Butyl-2-p-tolyl-2H-pyrazol-3-yl)-3-{(1S,4R)-4-[3-((S)-3-hydroxymethyl-pyrrolidin-1-yl)-[1,2,4]triazolo[4,3-a]pyridin-6-yloxy]-1,2,3,4-tetrahydro-naphthalen-1-yl}-urea]",< 10 nM
